Values joined by “and” are separate entries in the source; they are usually repeats but may differ in a detail not shown here. Identical values can stand only once. Like-named read-outs stand apart in the source and are kept apart here.
What was measured:
[1] = tested on: Osteoblasts (Calvarial cells); settings: ICR, mouse, 72 h, 1 μM
[2] = tested on: Osteoblasts (Calvarial cells); test: Alkaline phosphatase (ALP) activity in osteoblasts (Calvarial cells); type: cell-based, mice; settings: 1 μM compound, 3 days; for activity at 1 µM: Mus musculus, 72 h, Calvarial cell, read-out: ALP activity (1 μM, % of Control) Calvarial cell
Protocol: Differentiation and activity of osteoblasts were indirectly evaluated by measuring an ALP activity having a close relationship with osteogenesis.
Osteoblasts (Calvarial cells) prepared in Experimental Example 1 and MC3T3-E1 cells (available from RIKEN Cell Bank, Japan) were collected in α-MEM supplemented with 10% FBS, followed by cell counting. The cells were dispensed into 24-well cultureware at a density of 2×10^4 cells/well. After culturing of the cells for 24 hours, the culture media were discarded and replaced with fresh media in which test compounds were diluted to a concentration of 1 μM (1 mL/well). In addition, the vehicle control group containing 0.1% DMSO was also treated. […] When the experiment was terminated, the supernatant was removed and the cells were washed three times with cold phosphate buffer at 4°. 0.2% Triton X-100 was added to the washed cells which were then subjected to three cycles of freezing at −70° and thawing at room temperature for the complete lysis of cells. The cell extracts were pooled and centrifuged to collect the cell supernatant which was used for the measurement of ALP activity and proteins. The protein concentration was measured using a BCA assay kit (manufactured by Sigma-Aldrich). For the measurement of ALP activity, p-nitrophenylphosphate was added to the cell supernatant which was then incubated at 37° for 30 minutes, and the reaction was terminated with the addition of 50 μL of 0.2N sodium hydroxide. The standard curve was plotted at the absorbance of 405 nm using p-nitrophenol as a standard material and then the absorbance of test materials thus reacted was measured to determine the production amount of p-nitrophenol.
The ALP activity was calculated by dividing the amount of p-nitrophenol produced from each test material by the protein amount and the reaction time. Therefore, the unit of ALP activity was given in terms of p-nitrophenol/μg protein/min. The results are given in Tables 28-1 and 28-2 where the ALP activity unit of each test material was given in terms of % change through the comparison between the individual test materials and the vehicle control group.

[3] = tested on: formation of osteoclasts in co-culture of bone marrow cells and osteoblasts; test: Osteoclastogenesis inhibition via co-culture system (TRAP staining); type: cell-based, mice; settings: 1 μM compound, 7 days co-culture, TRAP-positive multinucleated osteoclasts vs vehicle control; for inhibition at 1 µM: Mus musculus, Osteoclast, 168 h
Summary of the method: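 Bone marrow cells from male ddY mice were co-cultured with osteoblasts for 7 days in α-MEM/10% FBS with 10^−8 M 1α,25-dihydroxyvitamin D3 and dexamethasone. Compound was present at 1 μM final and refreshed every 2–3 days. TRAP-positive cells with 6–7 nuclei were counted, with % inhibition relative to DMSO vehicle (n=4).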

[4] = tested on: Osteoblasts (Calvarial cells); test: Cytotoxicity test (MTT); settings: 1 μM compound, 72 hours, in comparison with vehicle control

SMILES: Cc1ccc(Nc2nc(N3CCC(N)CC3)ccc2[N+](=O)[O-])cc1 [Compound 13, 2-(4-methylphenylamino)-6-(4-aminopiperidino)-3-nitropyridine]
- Cell viability (%) Calvarial cell [1]: 97%
- activity at 1 µM [2]: 115%
- inhibition at 1 µM [3]: 92%

SMILES: CC(C)(C)c1ccc(Nc2nc(N3CCC(N)CC3)ccc2[N+](=O)[O-])cc1 [Compound 43, 2-[4-(t-butyl)phenylamino]-6-(4-aminopiperidino)-3-nitropyridine]
- Cell viability (%) Calvarial cell [1]: 114%
- activity at 1 µM [2]: 121%
- inhibition at 1 µM [3]: 100%

SMILES: CC(C)CNc1ccc([N+](=O)[O-])c(Nc2ccc(N)cc2)n1 [Compound 59, 2-[4-(amino)phenylamino]-6-(isobutylamino)-3-nitropyridine]
- Cell viability (%) Calvarial cell [1]: 99%
- activity at 1 µM [2]: 115%
- inhibition at 1 µM [3]: 81%

SMILES: CC(=O)c1cccc(Nc2nc(NC(C)C)ccc2[N+](=O)[O-])c1 [Compound 97, 2-(3-acetylphenylamino)-6-(isopropylamino)-3-nitropyridine]
- Cell viability (%) Calvarial cell [1]: 114%
- activity at 1 µM [2]: 188%
- inhibition at 1 µM [3]: 80%

SMILES: CC(=O)c1cccc(Nc2nc(N3CCNCC3)ccc2[N+](=O)[O-])c1 [Compound 106, 2-(3-acetylphenylamino)-6-(piperazin-1-yl)-3-nitropyridine]
- Cell viability (%) Calvarial cell [1]: 81%
- activity at 1 µM [2]: 116%
- inhibition at 1 µM [3]: 87%

SMILES: O=[N+]([O-])c1ccc(N2CCNCC2)nc1Nc1ccc(N2CCOCC2)cc1 [Compound 120, 2-(4-morpholinophenylamino)-6-(piperazin-1-yl)-3-nitropyridine]
- Cell viability (%) Calvarial cell [1]: 94%
- activity at 1 µM [2]: 115%
- inhibition at 1 µM [3]: 63%

SMILES: NC1CCN(c2ccc([N+](=O)[O-])c(Nc3ccc(N4CCOCC4)cc3)n2)CC1 [Compound 121, 2-(4-morpholinophenylamino)-6-(4-aminopiperidino)-3-nitropyridine]
- Cell viability (%) Calvarial cell [1]: 100%
- activity at 1 µM [2]: 127%
- inhibition at 1 µM [3]: 89%

SMILES: CCN(CCO)c1ccc([N+](=O)[O-])c(Nc2ccc(-c3csc(C)n3)cc2)n1 [Compound 141, 2-[4-(2-methylthiazol-4-yl)phenylamino]-6-[(N-ethyl-2-hydroxy)ethylamino]-3-nitropyridine]
- ALP activity (1 μM, % of Control) Calvarial cell [2]: 129 % of Control
- Osteoclastogenesis inhibition (%) 1 μM [3]: 82%
- Cell viability (%) Calvarial cell [4]: 102%

SMILES: CC(C)CNc1ccc([N+](=O)[O-])c(Nc2ccc(N3CCOCC3)c(F)c2)n1 [Compound 193, 2-[(3-fluoro-4-morpholino)phenylamino]-6-(isobutylamino)-3-nitropyridine]
- ALP activity (1 μM, % of Control) Calvarial cell [2]: 114 % of Control
- Osteoclastogenesis inhibition (%) 1 μM [3]: 81%
- Cell viability (%) Calvarial cell [4]: 98%

SMILES: CC(C)(C)Nc1ccc([N+](=O)[O-])c(Nc2ccc(N3CCOCC3)c(F)c2)n1 [Compound 199, 2-[(3-fluoro-4-morpholino)phenylamino]-6-(t-butylamino)-3-nitropyridine]
- ALP activity (1 μM, % of Control) Calvarial cell [2]: 118 % of Control
- Osteoclastogenesis inhibition (%) 1 μM [3]: 67%
- Cell viability (%) Calvarial cell [4]: 118%

SMILES: O=[N+]([O-])c1ccc(N2CCNCC2)nc1Nc1ccc(N2CCOCC2)c(F)c1 [Compound 201, 2-[(3-fluoro-4-morpholino)phenylamino]-6-(piperazin-1-yl)-3-nitropyridine]
- ALP activity (1 μM, % of Control) Calvarial cell [2]: 118 % of Control
- Osteoclastogenesis inhibition (%) 1 μM [3]: 86%
- Cell viability (%) Calvarial cell [4]: 95%

SMILES: O=[N+]([O-])c1ccc(N2CCNCC2)nc1Nc1ccc(N2CCSCC2)c(F)c1 [Compound 213, 2-[(3-fluoro-4-thiomorpholino)phenylamino]-6-(piperazin-1-yl)-3-nitropyridine]
- ALP activity (1 μM, % of Control) Calvarial cell [2]: 121 % of Control
- Osteoclastogenesis inhibition (%) 1 μM [3]: 94%
- Cell viability (%) Calvarial cell [4]: 95%

SMILES: CNc1ccc([N+](=O)[O-])c(Nc2ccc(N3CCNCC3)c(F)c2)n1 [Compound 215, 2-[(3-fluoro-4-piperazino)phenylamino]-6-(methylamino)-3-nitropyridine]
- ALP activity (1 μM, % of Control) Calvarial cell [2]: 125 % of Control
- Osteoclastogenesis inhibition (%) 1 μM [3]: 91%
- Cell viability (%) Calvarial cell [4]: 104%

SMILES: CC(C)Nc1ccc([N+](=O)[O-])c(Nc2ccc(N3CCNCC3)c(F)c2)n1 [Compound 216, 2-[(3-fluoro-4-piperazino)phenylamino]-6-(isopropylamino)-3-nitropyridine]
- ALP activity (1 μM, % of Control) Calvarial cell [2]: 112 % of Control
- Osteoclastogenesis inhibition (%) 1 μM [3]: 93%
- Cell viability (%) Calvarial cell [4]: 92%

SMILES: CC(C)CNc1ccc([N+](=O)[O-])c(Nc2ccc(N3CCNCC3)c(F)c2)n1 [Compound 217, 2-[(3-fluoro-4-piperazino)phenylamino]-6-(isobutylamino)-3-nitropyridine]
- ALP activity (1 μM, % of Control) Calvarial cell [2]: 119 % of Control
- Osteoclastogenesis inhibition (%) 1 μM [3]: 94%
- Cell viability (%) Calvarial cell [4]: 92%

SMILES: CNc1ccc([N+](=O)[O-])c(Nc2ccc(N3CCCCC3)c(F)c2)n1 [Compound 223, 2-[(3-fluoro-4-piperidino)phenylamino]-6-(methylamino)-3-nitropyridine]
- ALP activity (1 μM, % of Control) Calvarial cell [2]: 247 % of Control
- Osteoclastogenesis inhibition (%) 1 μM [3]: 82%
- Cell viability (%) Calvarial cell [4]: 100%

SMILES: CC(C)CNc1ccc([N+](=O)[O-])c(Nc2ccc(N3CCCCC3)c(F)c2)n1 [Compound 225, 2-[(3-fluoro-4-piperidino)phenylamino]-6-(isobutylamino)-3-nitropyridine]
- ALP activity (1 μM, % of Control) Calvarial cell [2]: 150 % of Control
- Osteoclastogenesis inhibition (%) 1 μM [3]: 60%
- Cell viability (%) Calvarial cell [4]: 90%

SMILES: CC1=NCCN1c1ccc([N+](=O)[O-])c(Nc2ccc(N3CCCCC3)c(F)c2)n1 [Compound 227, 2-[(3-fluoro-4-piperidino)phenylamino]-6-[(2-methyl-4,5-dihydro)imidazol-1-yl]-3-nitropyridine]
- ALP activity (1 μM, % of Control) Calvarial cell [2]: 122 % of Control
- Osteoclastogenesis inhibition (%) 1 μM [3]: 65%
- Cell viability (%) Calvarial cell [4]: 103%

SMILES: O=[N+]([O-])c1ccc(NCc2cccnc2)nc1Nc1ccc(N2CCCCC2)c(F)c1 [Compound 229, 2-[(3-fluoro-4-piperidino)phenylamino]-6-[(3-pyridyl)methylamino]-3-nitropyridine]
- ALP activity (1 μM, % of Control) Calvarial cell [2]: 114 % of Control
- Osteoclastogenesis inhibition (%) 1 μM [3]: 97%
- Cell viability (%) Calvarial cell [4]: 104% and 125%

SMILES: O=[N+]([O-])c1ccc(NCc2ccncc2)nc1Nc1ccc(N2CCCCC2)c(F)c1 [Compound 230, 2-[(3-fluoro-4-piperidino)phenylamino]-6-[(4-pyridyl)methylamino]-3-nitropyridine]
- ALP activity (1 μM, % of Control) Calvarial cell [2]: 120 % of Control
- Osteoclastogenesis inhibition (%) 1 μM [3]: 93%
- Cell viability (%) Calvarial cell [4]: 101%

SMILES: CC(C)(C)Nc1ccc([N+](=O)[O-])c(Nc2ccc(N3CCCCC3)c(F)c2)n1 [Compound 231, 2-[(3-fluoro-4-piperidino)phenylamino]-6-(t-butylamino)-3-nitropyridine]
- ALP activity (1 μM, % of Control) Calvarial cell [2]: 121 % of Control
- Osteoclastogenesis inhibition (%) 1 μM [3]: 82%
- Cell viability (%) Calvarial cell [4]: 112%

SMILES: O=[N+]([O-])c1ccc(N2CCOCC2)nc1Nc1ccc(N2CCCCC2)c(F)c1 [Compound 235, 2-[(3-fluoro-4-piperidino)phenylamino]-6-morpholino-3-nitropyridine]
- ALP activity (1 μM, % of Control) Calvarial cell [2]: 121 % of Control
- Osteoclastogenesis inhibition (%) 1 μM [3]: 86%
- Cell viability (%) Calvarial cell [4]: 105%

SMILES: CNc1ccc([N+](=O)[O-])c(Nc2ccc(N3CCC(O)CC3)c(F)c2)n1 [Compound 236, 2-{[3-fluoro-4-(4-hydroxypiperidino)]phenylamino}-6-(methylamino)-3-nitropyridine]
- ALP activity (1 μM, % of Control) Calvarial cell [2]: 209 % of Control
- Osteoclastogenesis inhibition (%) 1 μM [3]: 76%
- Cell viability (%) Calvarial cell [4]: 91%

SMILES: CN1CCN(c2ccc([N+](=O)[O-])c(Nc3ccc(N4CCC(O)CC4)c(F)c3)n2)CC1 [Compound 244, 2-{[3-fluoro-4-(4-hydroxypiperidino)]phenylamino}-6-(4-methylpiperazin-1-yl)-3-nitropyridine]
- ALP activity (1 μM, % of Control) Calvarial cell [2]: 118 % of Control
- Osteoclastogenesis inhibition (%) 1 μM [3]: 62%
- Cell viability (%) Calvarial cell [4]: 99%
